Data on 10 compounds can be found in patent US7531543B2, “Phenylpiperazine cycloalkanol derivatives and methods of their use” (Wyeth, priority 2003, dated 2009).

SMILES strings stand for the structures. Counter-ions that a name gives are not always drawn.

For the first experiment, the target named is T1, human hNET (Homo sapiens, UniProt P23975).
T1 construct: expressed in transfected cells; host or cells: MDCK-Net6 (MDCK cells stably transfected with hNET)
T1 sequence (P23975 whole entry): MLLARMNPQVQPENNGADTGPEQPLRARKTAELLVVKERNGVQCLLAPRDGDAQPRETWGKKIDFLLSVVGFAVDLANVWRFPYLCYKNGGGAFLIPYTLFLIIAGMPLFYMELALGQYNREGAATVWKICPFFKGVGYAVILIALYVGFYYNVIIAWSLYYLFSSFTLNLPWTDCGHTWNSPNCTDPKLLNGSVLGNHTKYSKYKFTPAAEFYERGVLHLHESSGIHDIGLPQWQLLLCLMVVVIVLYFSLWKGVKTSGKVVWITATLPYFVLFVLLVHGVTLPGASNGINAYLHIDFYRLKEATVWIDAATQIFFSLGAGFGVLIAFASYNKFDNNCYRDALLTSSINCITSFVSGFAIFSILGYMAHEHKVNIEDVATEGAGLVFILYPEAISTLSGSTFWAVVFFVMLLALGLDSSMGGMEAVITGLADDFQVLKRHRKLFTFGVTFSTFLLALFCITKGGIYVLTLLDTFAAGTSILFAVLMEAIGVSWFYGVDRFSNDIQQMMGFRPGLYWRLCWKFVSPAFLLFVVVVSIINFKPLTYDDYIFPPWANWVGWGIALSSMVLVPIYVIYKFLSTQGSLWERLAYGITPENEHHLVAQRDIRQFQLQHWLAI
In words: Norepinephrine (NE) uptake assay in MDCK-Net6 cells. Particulars: 1 μM test compound; [3H]NE uptake, MDCK-Net6 cells stably transfected with hNET. It counts as cell-based. On the procedure: MDCK-Net6 cells, stably transfected with human hNET (Pacholczyk, T., R. D. Blakely, and S. G. Amara, Nature, 1991, 350(6316): p. 350-4) were cultured in growth medium containing high glucose DMEM (Gibco, Cat. No. 11995), 10% FBS (dialyzed, heat-inactivated, US Bio-Technologies, Lot FBD1129HI) and 500 µg/ml G418 (Gibco, Cat. No. 10131). Cells were plated at 300,000/T75 flask and cells were split twice weekly. The JAR cell line (human placental choriocarcinoma) was purchased from ATCC (Cat. No. HTB-144). The cells were cultured in growth medium containing RPMI 1640 (Gibco, Cat. No. 72400), 10% FBS (Irvine, Cat. No. 3000), 1% sodium pyruvate (Gibco, Cat. No. 1136) and 0.25% glucose. Cells were plated at 250,000 cells/T75 flask and split twice weekly. For all assays, cells were plated in Wallac 96-well sterile plates (PerkinElmer, Cat. No. 3983498).
Norepinephrine (NE) Uptake Assay
On day 1, cells were plated at 3,000 cells/well in growth medium and maintained in a cell incubator (37° C., 5% CO2). On day 2, growth medium was replaced with 200 μl of assay buffer (25 mM HEPES; 120 mM NaCl; 5 mM KCl; 2.5 mM CaCl2; 1.2 mM MgSO4; 2 mg/ml glucose (pH 7.4, 37° C.)) containing 0.2 mg/ml ascorbic acid and 10 μM pargyline. Plates containing cells with 200 μl of assay buffer were equilibrated for 10 minutes at 37° C. prior to addition of compounds. A stock solution of desipramine was prepared in DMSO (10 mM) and delivered to triplicate wells containing cells for a final test concentration of 1 μM. Data from these wells were used to define non-specific NE uptake (minimum NE uptake). Test compounds were prepared in DMSO (10 mM) and diluted in assay buffer according to test range (1 to 10,000 nM). Twenty-five microliters of assay buffer (maximum NE uptake) or test compound were added directly to triplicate wells containing cells in 200 μl of assay buffer. The cells in assay buffer with test compounds were incubated for 20 minutes at 37° C. To initiate the NE uptake, [^3H]NE diluted in assay buffer (120 nM final assay concentration) was delivered in 25 μl aliquots to each well and the plates were incubated for 5 minutes (37° C.). The reaction was terminated by decanting the supernatant from the plate. The plates containing cells were washed twice with 200 μl assay buffer (37° C.) to remove free radioligand. The plates were then inverted, left to dry for 2 minutes, then reinverted and air-dried for an additional 10 minutes. The cells were lysed in 25 μl of 0.25 N NaOH solution (4° C.), placed on a shake table and vigorously shaken for 5 minutes. After cell lysis, 75 μl of scintillation cocktail was added to each well and the plates were sealed with film tape. The plates were returned to the shake table and vigorously shaken for a minimum of 10 minutes to ensure adequate partitioning of organic and aqueous solutions. The plates were counted in a Wallac Microbeta counter (PerkinElmer) to collect the raw cpm data.
For each experiment, a data stream of cpm values collected from the Wallac Microbeta counter was downloaded to a Microsoft Excel statistical application program. Calculations of EC50 values were made using the transformed-both-sides logistic dose response program written by Wyeth Biometrics Department. The statistical program uses mean cpm values from wells representing maximum binding or uptake (assay buffer) and mean cpm values from wells representing minimum binding or uptake ((1 μM desipramine (hNET) or 1 μM paroxetine (hSERT)). Estimation of the EC50 value was completed on a log scale and the line was fit between the maximum and minimum binding or uptake values. All graphic data representation was generated by normalizing each data point to a mean percent based on the maximum and minimum binding or uptake values. The EC50 values reported from multiple experiments were calculated by pooling the raw data from each experiment and analyzing the pooled data as one experiment.
In general, inhibition refers to the drop in the measured response relative to a control, in per cent. Regarding `CN1CCN(CC(c2ccc(F)cc2)C2(O)CCC2)CC1` (stereo not shown) [Example 32, 1-[1-(4-fluorophenyl)-2-(4-methylpiperazin-1-yl)ethyl]cyclobutanol dihydrochloride], the inhibition at 1 µM was -10%.

With `OC1(C(CN2CCNCC2)c2ccccc2Br)CCCCC1` (stereo not shown) [Example 33, 1-[1-(2-bromophenyl)-2-piperazin-1-ylethyl]cyclohexanol dihydrochloride], the inhibition at 1 µM stood at 35%.

Consider `OC1(C(CN2CCNCC2)c2cccc(Cl)c2)CCCCCCC1` (stereo not shown) [Example 36, 1-[1-(3-chlorophenyl)-2-piperazin-1-ylethyl]cyclooctanol dihydrochloride], for which the inhibition at 1 µM is 28%.

`OC1(C(CN2CCNCC2)c2cccc(Br)c2)CCCCCCC1` (stereo not shown) [Example 37, 1-[1-(3-bromophenyl)-2-piperazin-1-ylethyl]cyclooctanol dihydrochloride]: the inhibition at 1 µM is 28%.

As for `COc1ccc(C(CN2CCNCC2)C2(O)CCCCCCC2)cc1Br` (stereo not shown) [Example 38, 1-[1-(3-bromo-4-methoxyphenyl)-2-piperazin-1-ylethyl]cyclooctanol dihydrochloride], the inhibition at 1 µM is 42%.

Regarding `CN1CCN(CC(c2cccc(Cl)c2)C2(O)CCCCCCC2)CC1` (stereo not shown) [Example 39, 1-[1-(3-chlorophenyl)-2-(4-methylpiperazin-1-yl)ethyl]cyclooctanol dihydrochloride], the inhibition at 1 µM worked out at 42%.

With `CN1CCN(CC(c2cccc(Br)c2)C2(O)CCCCCCC2)CC1` (stereo not shown) [Example 40, 1-[1-(3-bromophenyl)-2-(4-methylpiperazin-1-yl)ethyl]cyclooctanol dihydrochloride], the inhibition at 1 µM stood at 44%.

In the case of `COc1ccc(C(CN2CCN(C)CC2)C2(O)CCCCCCC2)cc1Br` (stereo not shown) [Example 41, 1-[1-(3-bromo-4-methoxyphenyl)-2-(4-methylpiperazin-1-yl)ethyl]cyclooctanol dihydrochloride], the inhibition at 1 µM amounted to 48%.

Still in this experiment, the particulars now being: [3H]NE uptake, MDCK-Net6 cells stably transfected with hNET; test range 1 to 10,000 nM.
As usually defined, the EC50 is the concentration giving half of the maximal effect. In the case of `OC1([C@H](CN2CCNCC2)c2cccc(Cl)c2)CCCCC1` [Example 34, 1-[(1S)-1-(3-chlorophenyl)-2-piperazin-1-ylethyl]cyclohexanol dihydrochloride], the EC50 was found to be 25 nM.

Compound `OC1([C@@H](CN2CCNCC2)c2cccc(Cl)c2)CCCCC1` [Example 35, 1-[(1R)-1-(3-chlorophenyl)-2-piperazin-1-ylethyl]cyclohexanol dihydrochloride] showed an EC50 of 540 nM.
